Where two headings read alike, the source gives them in different places.
Biological target: T1, IRAK4 (Homo sapiens, UniProt Q9NWZ3)
T1 construct: Degradation of IRAK4 in OCI-LY10 was quantitatively measured using Meso Scale Discovery technology; endogenous in cells; host or cells: OCI-LY10
T1 sequence (Q9NWZ3 1-460): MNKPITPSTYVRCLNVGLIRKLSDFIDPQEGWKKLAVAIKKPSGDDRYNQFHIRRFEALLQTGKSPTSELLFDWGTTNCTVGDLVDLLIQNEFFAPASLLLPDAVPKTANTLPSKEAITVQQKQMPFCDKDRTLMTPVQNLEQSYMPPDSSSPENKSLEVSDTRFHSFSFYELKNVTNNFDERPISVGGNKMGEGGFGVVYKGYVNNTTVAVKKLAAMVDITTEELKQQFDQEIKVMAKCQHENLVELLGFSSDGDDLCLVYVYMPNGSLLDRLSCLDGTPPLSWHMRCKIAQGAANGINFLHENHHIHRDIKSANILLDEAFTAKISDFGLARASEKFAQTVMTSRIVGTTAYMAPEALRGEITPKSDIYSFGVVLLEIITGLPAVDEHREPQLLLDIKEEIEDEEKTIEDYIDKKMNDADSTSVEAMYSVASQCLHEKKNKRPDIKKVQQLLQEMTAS
Assay: IRAK4 MSD Degradation in OCI-LY10
Format: cell-based
Settings: OCI-LY10 cells
Method in brief: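 OCI-LY10 cells exposed to 8-point 1:3 compound series (top 1 to 10 μM) for 4 to 24 h at 37 °C, 5% CO2. Lysate IRAK4 quantified by MSD sandwich immunoassay. DC50 from three-parameter logistic fit, binned A (<0.01 μM) to D (>0.2 μM or not tested).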

[1] = 4 hrs incubation, MSD, read-out: IRAK4 degradation in OCI-LY10 at 4 hrs: DC50
[2] = 24 hrs incubation, MSD, read-out: IRAK4 degradation in OCI-LY10 at 24 hrs: DC50

| Compound | DC50 [1] | DC50 [2] | DC50 (4 hrs incubation, read-out: IRAK4 degradation in OCI-LY10 at 4 hrs: DC50) | DC50 (24 hrs incubation, read-out: IRAK4 degradation in OCI-LY10 at 24 hrs: DC50) |
| --- | --- | --- | --- | --- |
| Cn1c(=O)n(C2CCC(=O)NC2=O)c2cccc(N3CC(O[C@H]4CC[C@H](n5cc6cc(NC(=O)c7cccc(C(F)(F)F)n7)ccc6n5)CC4)C3)c21 (stereo partly drawn) [I-796] |  |  | > 200 nM | > 200 nM |
| CC([C@H]1CC[C@H](n2cc(NC(=O)c3cnn4ccc(N5C[C@H]6C[C@@H]5CO6)nc34)c(C(F)F)n2)CC1)N1CCN(CCCc2cccc3c2n(C)c(=O)n3C2CCC(=O)NC2=O)CC1 (stereo partly drawn) [I-195] | > 200 nM | > 200 nM |  |  |
| O=C1CCC(c2cccc3c(C#CCOC4CCN(C[C@H]5CC[C@H](n6cc(NC(=O)c7cnn8ccc(N9C[C@H]%10C[C@@H]9CO%10)nc78)c(C(F)F)n6)CC5)CC4)cccc23)C(=O)N1 (stereo partly drawn) [I-248] | > 200 nM | 10 to 100 nM |  |  |
| Cn1c(=O)n(C2CCC(=O)NC2=O)c2cccc(N3CCC(N4CCN([C@H]5CC[C@H](n6cc(NC(=O)c7cnn8ccc(N9C[C@H]%10C[C@@H]9CO%10)nc78)c(C(F)F)n6)CC5)CC4)CC3)c21 (stereo partly drawn) [I-203] | > 200 nM | > 200 nM |  |  |
| CN(C[C@H]1CC[C@H](n2cc(NC(=O)c3cnn4ccc(N5CC6CCC(C5)O6)nc34)c(C(F)F)n2)CC1)C1CCN(c2cccc3c2n(C)c(=O)n3C2CCC(=O)NC2=O)CC1(F)F (stereo partly drawn) [I-526] | > 200 nM | 10 to 100 nM |  |  |
| Cn1c(=O)n(C2CCC(=O)NC2=O)c2cccc(C3=CCN(C[C@H]4CC[C@H](n5cc6cc(NC(=O)c7cccc(C(F)(F)F)n7)ccc6n5)CC4)CC3F)c21 (stereo partly drawn) [I-457] | > 200 nM | > 200 nM |  |  |
| O=C1CCN(c2cccc(C#CCN3CCN(C[C@H]4CC[C@@H](n5cc(NC(=O)c6cnn7ccc(N8CC9CCC(C8)O9)nc67)c(C(F)F)n5)CC4)CC3)c2)C(=O)N1 [I-435] | > 200 nM | > 200 nM |  |  |
| CN(C[C@H]1CC[C@H](n2cc(NC(=O)c3cnn4ccc(N5CC6(CCOCC6)C5)nc34)c(C(F)F)n2)CC1)C1CCN(c2cccc3c2n(C)c(=O)n3C2CCC(=O)NC2=O)CC1(F)F (stereo partly drawn) [I-511] | > 200 nM | 10 to 100 nM |  |  |
| Cn1c(=O)n(C2CCC(=O)NC2=O)c2cccc(C#CCN3CCC(C[C@H]4CC[C@H](n5cc(NC(=O)c6cnn7ccc(N8C[C@H]9C[C@@H]8CO9)nc67)c(C(F)F)n5)CC4)C(F)(F)C3)c21 (stereo partly drawn) [I-375] | > 200 nM | > 200 nM |  |  |
| CN(C[C@H]1CC[C@H](n2cc(NC(=O)c3cnn4ccc(N5CCCC56CC6)nc34)c(C(F)F)n2)CC1)C1CCN(c2cccc3c2n(C)c(=O)n3C2CCC(=O)NC2=O)CC1(F)F (stereo partly drawn) [I-514] | > 200 nM | > 200 nM |  |  |
| Cn1c(=O)n(C2CCC(=O)NC2=O)c2cccc(OC3CN(C[C@H]4CC[C@H](n5cc6cc(NC(=O)c7cccc(C(F)(F)F)n7)ccc6n5)CC4)C3)c21 (stereo partly drawn) [I-607] | > 200 nM | 10 to 100 nM |  |  |
| Cn1c(=O)n(C2CCC(=O)NC2=O)c2cccc(C3=CCN(C[C@H]4CC[C@H](n5cc6cc(NC(=O)c7cccc(C(F)(F)F)n7)c(C(F)F)cc6n5)CC4)CC3F)c21 (stereo partly drawn) [I-726] | > 200 nM | < 10 nM |  |  |
| CN(CC1(F)CCN(c2cccc3c2n(C)c(=O)n3C2CCC(=O)NC2=O)CC1)C1CCC(n2cc3cc(NC(=O)c4cccc(C(F)(F)F)n4)ncc3n2)CC1 (stereo not drawn) [I-787] | > 200 nM | > 200 nM |  |  |
| Cn1c(=O)n(C2CCC(=O)NC2=O)c2cccc(C#CCN3CCN(C[C@H]4CC[C@H](n5cc(NC(=O)c6cnn7ccc(N8CCC(C)(C)C8)nc67)c(C(F)F)n5)CC4)CC3)c21 (stereo partly drawn) [I-223] | > 200 nM | 10 to 100 nM |  |  |
| Cn1c(=O)n(C2CCC(=O)NC2=O)c2cccc(OC3CN(C[C@H]4CC[C@H](n5cc6cc(NC(=O)c7cccc(C(F)(F)F)n7)c(C(C)(C)O)cc6n5)CC4)C3)c21 (stereo partly drawn) [I-696] | > 200 nM | < 10 nM |  |  |
| Cn1c(=O)n(C2CCC(=O)NC2=O)c2cccc(OC3CCN([C@H]4CC[C@H](n5cc6cc(NC(=O)c7cccc(C(F)(F)F)n7)ncc6n5)CC4)CC3(F)F)c21 (stereo partly drawn) [I-755] | > 200 nM | > 200 nM |  |  |
| Cn1c(=O)n(C2CCC(=O)NC2=O)c2cccc(C[C@@H]3CN(C[C@H]4CC[C@H](n5cc(NC(=O)c6cnn7ccc(N8C[C@H]9C[C@@H]8CO9)nc67)c(C(F)F)n5)CC4)CCO3)c21 (stereo partly drawn) [I-393] | > 200 nM | > 200 nM |  |  |

The next lines start with the values.

| DC50 [1] | DC50 [2] | DC50 (4 hrs incubation, read-out: IRAK4 degradation in OCI-LY10 at 4 hrs: DC50) | DC50 (24 hrs incubation, read-out: IRAK4 degradation in OCI-LY10 at 24 hrs: DC50) | Compound |
| --- | --- | --- | --- | --- |
| > 200 nM | > 200 nM |  |  | Cn1c(=O)n(C2CCC(=O)NC2=O)c2cccc(CC[C@@H]3CN(C[C@H]4CC[C@H](n5cc(NC(=O)c6cnn7ccc(N8C[C@H]9C[C@@H]8CO9)nc67)c(C(F)F)n5)CC4)CCO3)c21 (stereo partly drawn) [I-395] |
| > 200 nM | > 200 nM |  |  | Cn1c(=O)n(C2CCC(=O)NC2=O)c2cccc(C#CCC3CCN(C[C@H]4CC[C@H](n5cc(NC(=O)c6cnn7ccc(N8C[C@H]9CC8CO9)nc67)c(C(F)F)n5)CC4)CC3)c21 (stereo partly drawn) [I-15] |
| > 200 nM | > 200 nM |  |  | COc1cc2nn([C@H]3CC[C@H](CN4CCC5(CC4)CCN(c4cccc6c(N7CCC(=O)NC7=O)cncc46)CC5)CC3)cc2cc1NC(=O)c1cncc(C#N)c1 [I-90] |
| < 10 nM | > 200 nM |  |  | COc1cc2nn([C@H]3CC[C@H](CN4CCC5(CC4)CCN(c4cccc6c4n(C)c(=O)n6C4CCC(=O)NC4=O)CC5)CC3)cc2cc1NC(=O)c1cncc(SC)c1 (stereo partly drawn) [I-149] |
| 10 to 100 nM | > 200 nM |  |  | COc1cc2nn([C@H]3CC[C@H](CN4CCC5(CC4)CCN(c4cccc6c4n(C)c(=O)n6C4CCC(=O)NC4=O)CC5)CC3)cc2cc1NC(=O)c1cncc(OC(F)F)c1 (stereo partly drawn) [I-148] |
| > 200 nM | > 200 nM |  |  | COc1cc2nc([C@H]3CC[C@H](CN4CCC5(CC4)CCN(c4cccc6c4n(C)c(=O)n6C4CCC(=O)NC4=O)CC5)CC3)sc2cc1NC(=O)c1cncc(C#N)c1 (stereo partly drawn) [I-94] |
| > 200 nM | < 10 nM |  |  | COc1ccc2c(c1N1CCN(CC3CCC(n4cc5cc(NC(=O)c6cccc(C#N)n6)ccc5n4)CC3)CC1)n(C)c(=O)n2C1CCC(=O)NC1=O (stereo not drawn) [I-687] |
| > 200 nM | 10 to 100 nM |  |  | Cc1ccc(-c2nn([C@H]3CC[C@H](CN4CCN(CC#Cc5cccc6c5n(C)c(=O)n6C5CCC(=O)NC5=O)CC4)CC3)cc2NC(=O)c2cnn3cccnc23)c(F)c1 (stereo partly drawn) [I-116] |
| < 10 nM | > 200 nM |  |  | COc1ccc2c(c1C#CCOC1CCN(C[C@H]3CC[C@H](n4cc(NC(=O)c5cnn6ccc(N7C[C@H]8C[C@@H]7CO8)nc56)c(C(F)F)n4)CC3)CC1)n(C)c(=O)n2C1CCC(=O)NC1=O (stereo partly drawn) [I-2] |
| < 10 nM | > 200 nM |  |  | Cn1c(=O)n(C2CCC(=O)NC2=O)c2cccc(C#CC3CCN(C[C@H]4CC[C@H](n5cc(NC(=O)c6cnn7ccc(N8C[C@H]9C[C@@H]8CO9)nc67)c(C(F)F)n5)CC4)CC3)c21 (stereo partly drawn) [I-40] |
| < 10 nM | > 200 nM |  |  | Cn1c(=O)n(C2CCC(=O)NC2=O)c2cccc(N3CCN(C4CCN([C@H]5CC[C@H](n6cc(NC(=O)c7cnn8ccc(N9C[C@H]%10C[C@@H]9CO%10)nc78)c(C(F)F)n6)CC5)CC4)CC3)c21 (single isomer, unassigned) [I-201] |
| 10 to 100 nM | > 200 nM |  |  | COc1ccc2c(c1C#CCO[C@@H]1CCN(C[C@H]3CC[C@H](n4cc(NC(=O)c5cnn6ccc(N7C[C@H]8C[C@@H]7CO8)nc56)c(C(F)F)n4)CC3)C[C@@H]1F)n(C)c(=O)n2C1CCC(=O)NC1=O (stereo partly drawn) [I-1] |
| < 10 nM | > 200 nM |  |  | Cn1c(=O)n(C2CCC(=O)NC2=O)c2cccc(C#CCN3CCCN(C[C@H]4CC[C@H](n5cc(NC(=O)c6cnn7ccc(N8C[C@H]9C[C@@H]8CO9)nc67)c(C(F)F)n5)CC4)CC3)c21 (stereo partly drawn) [I-5] |
| < 10 nM | > 200 nM |  |  | Cn1c(=O)n(C2CCC(=O)NC2=O)c2cccc(CCCN3CCN(C[C@H]4CC[C@H](n5cc(NC(=O)c6cnn7ccc(N8C[C@H]9C[C@@H]8CO9)nc67)c(C(F)F)n5)CC4)CC3)c21 (relative stereo) [I-114] |
| 10 to 100 nM | > 200 nM |  |  | COCc1cncc(C(=O)Nc2cc3cn([C@H]4CC[C@H](CN5CCC6(CC5)CCN(c5cccc7c5n(C)c(=O)n7C5CCC(=O)NC5=O)CC6)CC4)nc3cc2OC)c1 (stereo partly drawn) [I-191] |
| 10 to 100 nM | > 200 nM |  |  | Cn1c(=O)n(C2CCC(=O)NC2=O)c2cccc(C#CCO[C@@H]3CCN(C[C@H]4CC[C@H](n5cc(NC(=O)c6cnn7ccc(N8C[C@H]9C[C@@H]8CO9)nc67)c(C(F)F)n5)CC4)C3)c21 (stereo partly drawn) [I-24] |
| 10 to 100 nM | > 200 nM |  |  | Cn1c(=O)n(C2CCC(=O)NC2=O)c2cccc(C#CCN3CCN([C@H]4CC[C@@H](n5cc(NC(=O)c6cnn7ccc(N8C[C@H]9C[C@@H]8CO9)nc67)c(C(F)F)n5)CC4)CC3)c21 (stereo partly drawn) [I-421] |
| 10 to 100 nM | > 200 nM |  |  | C[C@H]1CN(C[C@H]2CC[C@H](n3cc(NC(=O)c4cnn5ccc(N6C[C@@H]7C[C@H]6CO7)nc45)c(C(F)F)n3)CC2)CC[C@@H]1OCC#Cc1cccc2c1n(C)c(=O)n2[C@@H]1CCC(=O)NC1=O [I-80] |
| 10 to 100 nM | > 200 nM |  |  | C[C@H]1CN(C[C@H]2CC[C@H](n3cc(NC(=O)c4cnn5ccc(N6C[C@H]7C[C@@H]6CO7)nc45)c(C(F)F)n3)CC2)CC[C@@H]1OCC#Cc1cccc2c1n(C)c(=O)n2[C@@H]1CCC(=O)NC1=O (single isomer, unassigned) [I-73] |

Reference: patent US12091411B2, “IRAK degraders and uses thereof” (Kymera Therapeutics, Inc., priority 2022, dated 2024)
